From ChEMBL document CHEMBL5523771, “Hydrazides as Inhibitors of Histone Deacetylases” (J Med Chem, 2024)

Columns and labels:
[1] = target: T1, Histone deacetylase 1 (Homo sapiens, UniProt Q13547); assay: Inhibition of HDAC1 (unknown origin)
[2] = target: T2, Histone deacetylase 2 (Homo sapiens, UniProt Q92769); assay: Inhibition of HDAC2 (unknown origin)
[3] = target: T3, Histone deacetylase 3 (Homo sapiens, UniProt O15379); assay: Inhibition of HDAC3 (unknown origin)
[4] = target: T4, Histone deacetylase 8 (Homo sapiens, UniProt Q9BY41); assay: Inhibition of HDAC8 (unknown origin)
T4 sequence (Q9BY41 whole entry): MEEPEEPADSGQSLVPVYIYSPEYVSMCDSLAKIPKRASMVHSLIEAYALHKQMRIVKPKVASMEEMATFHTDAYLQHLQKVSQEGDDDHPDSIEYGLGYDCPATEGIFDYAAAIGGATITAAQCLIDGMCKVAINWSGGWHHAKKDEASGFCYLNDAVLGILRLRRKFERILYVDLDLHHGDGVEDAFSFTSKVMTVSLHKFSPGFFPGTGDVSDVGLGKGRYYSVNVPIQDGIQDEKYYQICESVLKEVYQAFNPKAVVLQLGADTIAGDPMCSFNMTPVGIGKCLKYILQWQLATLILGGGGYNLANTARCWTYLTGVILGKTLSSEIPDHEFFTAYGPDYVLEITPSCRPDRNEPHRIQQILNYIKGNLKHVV

[5] = target: Histone deacetylase 4 (Homo sapiens, UniProt P56524); assay: Inhibition of HDAC4 (unknown origin)
[6] = target: T1, Histone deacetylase 1; assay: Inhibition of human HDAC1
[7] = target: T2, Histone deacetylase 2; assay: Inhibition of human HDAC2
[8] = target: T3, Histone deacetylase 3; assay: Inhibition of human HDAC3
[9] = target: T5, Histone deacetylase 11 (Homo sapiens, UniProt Q96DB2); assay: Inhibition of human recombinant full length FLAG-tagged HDAC11 transfected in HEK293T cells using Ac-ETDKrnyr-AMC as substrate incubated for 30 mins by fluorescence based analysis
T5 sequence (Q96DB2 whole entry): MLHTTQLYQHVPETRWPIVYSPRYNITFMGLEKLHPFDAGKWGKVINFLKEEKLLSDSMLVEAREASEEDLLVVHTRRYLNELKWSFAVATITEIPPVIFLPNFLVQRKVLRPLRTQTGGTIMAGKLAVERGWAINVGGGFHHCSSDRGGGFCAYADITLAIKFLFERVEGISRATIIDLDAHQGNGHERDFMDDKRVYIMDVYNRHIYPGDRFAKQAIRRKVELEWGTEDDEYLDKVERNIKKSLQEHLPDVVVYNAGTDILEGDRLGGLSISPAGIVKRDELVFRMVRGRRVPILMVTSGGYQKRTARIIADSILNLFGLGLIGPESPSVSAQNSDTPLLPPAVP

[10] = Inhibition of human HDAC1 (379 to 382 residues) using RHKKAc-AMC as substrate incubated for 60 mins by […] assay
[11] = target: T6, Protein deacetylase HDAC6 (Homo sapiens, UniProt Q9UBN7); assay: Inhibition of HDAC6 (unknown origin)
T6 sequence (Q9UBN7 whole entry): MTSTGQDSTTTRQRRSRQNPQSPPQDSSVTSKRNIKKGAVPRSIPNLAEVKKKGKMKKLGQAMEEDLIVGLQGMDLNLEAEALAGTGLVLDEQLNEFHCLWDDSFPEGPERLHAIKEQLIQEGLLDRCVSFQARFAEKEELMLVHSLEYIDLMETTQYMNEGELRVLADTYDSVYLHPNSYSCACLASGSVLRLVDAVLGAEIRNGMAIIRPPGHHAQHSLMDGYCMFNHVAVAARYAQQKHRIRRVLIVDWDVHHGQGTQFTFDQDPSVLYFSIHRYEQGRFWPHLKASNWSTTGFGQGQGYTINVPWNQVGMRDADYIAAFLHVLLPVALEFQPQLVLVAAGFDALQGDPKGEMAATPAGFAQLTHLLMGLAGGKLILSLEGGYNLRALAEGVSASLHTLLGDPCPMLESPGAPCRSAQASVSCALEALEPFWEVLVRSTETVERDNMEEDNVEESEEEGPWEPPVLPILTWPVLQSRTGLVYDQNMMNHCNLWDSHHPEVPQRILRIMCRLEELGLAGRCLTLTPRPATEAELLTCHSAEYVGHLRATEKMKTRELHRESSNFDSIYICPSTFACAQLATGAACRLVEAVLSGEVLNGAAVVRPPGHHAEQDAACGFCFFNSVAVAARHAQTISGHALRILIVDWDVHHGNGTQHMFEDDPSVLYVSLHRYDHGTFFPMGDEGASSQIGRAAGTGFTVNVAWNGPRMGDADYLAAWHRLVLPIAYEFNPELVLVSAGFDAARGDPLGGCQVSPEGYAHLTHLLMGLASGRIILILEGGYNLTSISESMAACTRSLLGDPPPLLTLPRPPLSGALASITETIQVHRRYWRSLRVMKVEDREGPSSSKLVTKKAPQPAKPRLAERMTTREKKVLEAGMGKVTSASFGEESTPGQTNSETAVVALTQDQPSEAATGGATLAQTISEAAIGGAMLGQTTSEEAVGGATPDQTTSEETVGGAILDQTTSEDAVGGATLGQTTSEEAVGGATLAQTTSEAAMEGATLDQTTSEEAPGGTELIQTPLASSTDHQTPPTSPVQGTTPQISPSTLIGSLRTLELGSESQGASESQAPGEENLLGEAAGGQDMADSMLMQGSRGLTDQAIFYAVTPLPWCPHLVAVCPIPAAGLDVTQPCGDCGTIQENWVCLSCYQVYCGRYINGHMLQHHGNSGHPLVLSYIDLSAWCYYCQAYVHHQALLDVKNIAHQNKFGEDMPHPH

T1 sequence (Q13547 whole entry): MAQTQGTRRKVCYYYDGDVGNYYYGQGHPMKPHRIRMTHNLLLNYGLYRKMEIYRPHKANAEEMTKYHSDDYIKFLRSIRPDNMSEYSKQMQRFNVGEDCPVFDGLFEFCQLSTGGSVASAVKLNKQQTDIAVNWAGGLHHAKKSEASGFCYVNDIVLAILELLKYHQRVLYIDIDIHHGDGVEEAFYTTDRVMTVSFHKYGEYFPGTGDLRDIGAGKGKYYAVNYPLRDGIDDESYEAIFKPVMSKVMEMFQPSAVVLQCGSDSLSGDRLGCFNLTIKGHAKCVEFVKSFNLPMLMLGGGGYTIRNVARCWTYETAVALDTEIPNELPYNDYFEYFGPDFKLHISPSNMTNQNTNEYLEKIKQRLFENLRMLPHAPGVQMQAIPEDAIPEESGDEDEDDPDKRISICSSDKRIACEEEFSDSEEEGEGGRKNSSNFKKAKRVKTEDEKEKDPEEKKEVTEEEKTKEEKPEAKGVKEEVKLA
T3 sequence (O15379 whole entry): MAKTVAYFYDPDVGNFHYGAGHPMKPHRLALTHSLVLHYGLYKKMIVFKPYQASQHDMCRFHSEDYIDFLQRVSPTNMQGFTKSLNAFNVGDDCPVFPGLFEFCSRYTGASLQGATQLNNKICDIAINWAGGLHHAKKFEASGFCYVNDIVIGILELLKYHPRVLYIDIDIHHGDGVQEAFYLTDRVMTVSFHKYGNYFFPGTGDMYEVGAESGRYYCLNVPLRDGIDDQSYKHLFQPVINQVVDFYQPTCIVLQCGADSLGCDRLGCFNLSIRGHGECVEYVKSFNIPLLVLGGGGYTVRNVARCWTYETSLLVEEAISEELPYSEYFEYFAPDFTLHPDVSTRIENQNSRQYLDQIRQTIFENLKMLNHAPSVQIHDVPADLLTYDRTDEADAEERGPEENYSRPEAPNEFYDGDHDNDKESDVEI
T2 sequence (Q92769 whole entry): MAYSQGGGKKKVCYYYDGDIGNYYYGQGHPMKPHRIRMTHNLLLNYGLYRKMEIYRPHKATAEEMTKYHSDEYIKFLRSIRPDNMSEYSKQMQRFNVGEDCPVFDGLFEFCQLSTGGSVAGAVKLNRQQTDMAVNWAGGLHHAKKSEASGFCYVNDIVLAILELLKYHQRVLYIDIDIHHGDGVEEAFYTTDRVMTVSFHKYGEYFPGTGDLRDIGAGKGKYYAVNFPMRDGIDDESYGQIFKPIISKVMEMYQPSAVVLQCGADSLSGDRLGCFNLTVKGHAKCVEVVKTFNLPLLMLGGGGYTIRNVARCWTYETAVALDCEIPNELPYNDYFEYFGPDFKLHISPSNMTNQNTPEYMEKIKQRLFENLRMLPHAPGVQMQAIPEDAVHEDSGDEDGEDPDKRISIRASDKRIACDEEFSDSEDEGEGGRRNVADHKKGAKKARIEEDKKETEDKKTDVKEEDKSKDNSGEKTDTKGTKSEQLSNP
Histone deacetylase 4, sequence (P56524 whole entry): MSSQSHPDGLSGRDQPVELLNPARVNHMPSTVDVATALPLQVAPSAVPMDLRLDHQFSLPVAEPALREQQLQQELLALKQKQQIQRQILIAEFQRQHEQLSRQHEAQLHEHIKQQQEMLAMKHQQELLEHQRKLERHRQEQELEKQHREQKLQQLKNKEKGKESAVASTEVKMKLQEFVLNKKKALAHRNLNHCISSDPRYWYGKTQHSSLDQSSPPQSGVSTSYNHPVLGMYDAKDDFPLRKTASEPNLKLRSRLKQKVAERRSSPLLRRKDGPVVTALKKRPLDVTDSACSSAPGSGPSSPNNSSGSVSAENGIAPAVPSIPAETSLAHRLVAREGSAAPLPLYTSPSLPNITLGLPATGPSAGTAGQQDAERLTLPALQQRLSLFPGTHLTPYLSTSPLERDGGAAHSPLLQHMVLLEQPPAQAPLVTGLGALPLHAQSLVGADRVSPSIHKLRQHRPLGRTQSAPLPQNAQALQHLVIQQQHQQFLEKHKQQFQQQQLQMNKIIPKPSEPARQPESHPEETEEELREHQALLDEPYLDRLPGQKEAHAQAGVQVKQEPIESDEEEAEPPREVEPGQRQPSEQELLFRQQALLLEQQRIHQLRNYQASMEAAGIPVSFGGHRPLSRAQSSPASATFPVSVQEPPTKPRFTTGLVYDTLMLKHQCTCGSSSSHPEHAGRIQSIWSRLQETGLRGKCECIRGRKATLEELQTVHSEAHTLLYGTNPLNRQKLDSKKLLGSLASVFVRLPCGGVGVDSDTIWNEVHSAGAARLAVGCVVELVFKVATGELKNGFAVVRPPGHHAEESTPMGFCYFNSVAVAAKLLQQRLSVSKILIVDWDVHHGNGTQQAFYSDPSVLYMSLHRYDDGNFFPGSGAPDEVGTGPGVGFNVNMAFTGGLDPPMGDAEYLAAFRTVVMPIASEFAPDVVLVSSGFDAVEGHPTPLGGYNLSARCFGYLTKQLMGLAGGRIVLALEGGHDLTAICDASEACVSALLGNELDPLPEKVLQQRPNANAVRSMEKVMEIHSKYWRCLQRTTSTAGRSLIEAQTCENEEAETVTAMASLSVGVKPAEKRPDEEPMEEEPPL

For `CCCC(CCC)C(=O)N[C@@H](Cc1ccccc1)C(=O)NNc1ccccc1`, the IC50 [1] was 390 nM, the IC50 [2] was 2020 nM and the IC50 [3] was 1490 nM. For the same compound, the IC50 [4] was 1540 nM and the IC50 [5] was 3180 nM.
For `CCCNNC(=O)CCCCCCC(=O)Nc1ccccc1`, the IC50 [6] was 828 nM, the IC50 [7] was 530 nM and the IC50 [8] was 379 nM.
With `CCCCCCCCCCCCCCCCNNC(=O)c1ccc(N(C)C)cc1` the IC50 [9] was 910 nM.
`CCCCNNC(=O)c1ccc(Br)cc1` gave an IC50 [10] of 133 nM.
With `CCCNNC(=O)c1ccc(Nc2nccc(N(C)c3ccc4c(C)n(C)cc4c3)n2)cc1` the IC50 [1] was 0.42 nM and the IC50 [11] was 8960 nM.
For `CCCC(CCC)C(=O)O` [VALPROIC ACID], the IC50 [5] was over 100000 nM.
